Assay results from ChEMBL document CHEMBL3102731, “Structure-activity relationship studies and biological characterization of human NAD(+)-dependent 15-hydroxyprostaglandin dehydrogenase inhibitors” (Bioorg Med Chem Lett, 2014).

What was measured:
[1] = target: L-lactate dehydrogenase B chain (Homo sapiens, UniProt P07195); assay: Inhibition of LDHB (unknown origin) using sodium pyruvate as substrate at 0.46 to 57.5 uM after 15 mins by fluorescence assay
[2] = target: L-lactate dehydrogenase A chain (Homo sapiens, UniProt P00338); assay: Inhibition of LDHA (unknown origin) using sodium pyruvate as substrate at 0.46 to 57.5 uM after 15 mins by fluorescence assay
[3] = target: T1, Aldehyde dehydrogenase 1A1 (Homo sapiens, UniProt P00352); assay: Inhibition of ALDH1A1 (unknown origin) using NAD+/propionaldehyde as substrate after 15 mins by UV-fluorescence assay
T1 sequence (P00352 whole entry): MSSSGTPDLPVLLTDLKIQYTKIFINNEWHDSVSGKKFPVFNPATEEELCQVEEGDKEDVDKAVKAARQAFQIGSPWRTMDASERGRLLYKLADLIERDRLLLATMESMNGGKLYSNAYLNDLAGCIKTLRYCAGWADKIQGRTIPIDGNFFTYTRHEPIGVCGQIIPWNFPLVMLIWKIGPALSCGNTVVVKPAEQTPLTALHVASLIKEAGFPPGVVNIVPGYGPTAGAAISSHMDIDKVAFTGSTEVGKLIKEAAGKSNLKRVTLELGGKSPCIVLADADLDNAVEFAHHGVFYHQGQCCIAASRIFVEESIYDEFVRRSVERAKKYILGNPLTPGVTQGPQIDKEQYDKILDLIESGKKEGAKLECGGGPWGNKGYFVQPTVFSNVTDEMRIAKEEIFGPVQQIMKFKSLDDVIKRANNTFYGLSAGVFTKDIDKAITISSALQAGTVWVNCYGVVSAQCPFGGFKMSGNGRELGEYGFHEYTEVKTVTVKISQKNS

[4] = system: A549; assay: Induction of PGE2 production in human A549 cells assessed as concentration required for half-maximal activation after 4 to 20 hrs by HTRF assay; assay type: functional, cell-based
[5] = system: Liver microsome; assay: Half life in rat liver microsomes in presence of NADPH; assay type: ADME
[6] = system: LNCaP; assay: Induction of PGE2 production in human LNCAP cells assessed as half-maximal activation concentration after 16 hrs by HTRF assay; assay type: functional, cell-based
[7] = target: T2, Peroxisomal multifunctional enzyme type 2 (Homo sapiens, UniProt P51659); assay: Inhibition of HSD17beta4 (unknown origin) using NAD+/estradiol as substrate at 324 pM to 57.2 uM after 15 mins by UV-fluorescence assay
T2 sequence (P51659 whole entry): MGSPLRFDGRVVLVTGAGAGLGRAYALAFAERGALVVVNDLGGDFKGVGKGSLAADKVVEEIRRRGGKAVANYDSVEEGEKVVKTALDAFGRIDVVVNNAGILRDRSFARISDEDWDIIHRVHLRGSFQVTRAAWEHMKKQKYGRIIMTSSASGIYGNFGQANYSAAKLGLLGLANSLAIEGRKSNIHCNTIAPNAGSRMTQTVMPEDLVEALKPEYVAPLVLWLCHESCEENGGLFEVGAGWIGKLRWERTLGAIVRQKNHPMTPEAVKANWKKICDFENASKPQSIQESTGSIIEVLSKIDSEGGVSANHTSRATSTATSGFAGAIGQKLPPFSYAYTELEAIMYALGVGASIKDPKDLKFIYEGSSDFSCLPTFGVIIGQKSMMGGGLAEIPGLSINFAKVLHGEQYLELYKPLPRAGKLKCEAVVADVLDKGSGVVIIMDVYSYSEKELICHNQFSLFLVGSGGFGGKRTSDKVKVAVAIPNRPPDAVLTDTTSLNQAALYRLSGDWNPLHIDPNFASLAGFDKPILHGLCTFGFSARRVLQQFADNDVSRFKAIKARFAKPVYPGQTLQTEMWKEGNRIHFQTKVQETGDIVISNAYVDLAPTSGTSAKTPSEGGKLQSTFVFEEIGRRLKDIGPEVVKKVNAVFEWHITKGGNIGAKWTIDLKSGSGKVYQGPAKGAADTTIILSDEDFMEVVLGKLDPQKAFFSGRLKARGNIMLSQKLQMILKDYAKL

[8] = target: Glyceraldehyde-3-phosphate dehydrogenase (Oryctolagus cuniculus, UniProt P46406); assay: Inhibition of rabbit muscle GAPDH using glyceraldehyde-3-phosphate as substrate at 324 pM to 57.2 uM by fluorescence assay
Chain of Glyceraldehyde-3-phosphate dehydrogenase (P46406 whole entry): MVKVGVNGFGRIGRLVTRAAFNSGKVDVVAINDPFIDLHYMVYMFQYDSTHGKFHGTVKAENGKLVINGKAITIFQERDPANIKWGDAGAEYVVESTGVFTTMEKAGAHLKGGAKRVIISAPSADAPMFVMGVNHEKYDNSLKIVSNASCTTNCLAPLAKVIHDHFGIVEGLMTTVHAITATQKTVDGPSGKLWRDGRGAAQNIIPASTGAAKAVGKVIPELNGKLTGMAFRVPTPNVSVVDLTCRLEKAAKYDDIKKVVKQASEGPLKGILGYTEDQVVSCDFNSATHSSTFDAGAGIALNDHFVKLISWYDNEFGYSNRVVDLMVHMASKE

[9] = target: T3, 15-hydroxyprostaglandin dehydrogenase [NAD(+)] (Homo sapiens, UniProt P15428); assay: Inhibition of human HPGD using PGE2 as substrate after 15 mins by fluorescence assay
T3 sequence (P15428 whole entry): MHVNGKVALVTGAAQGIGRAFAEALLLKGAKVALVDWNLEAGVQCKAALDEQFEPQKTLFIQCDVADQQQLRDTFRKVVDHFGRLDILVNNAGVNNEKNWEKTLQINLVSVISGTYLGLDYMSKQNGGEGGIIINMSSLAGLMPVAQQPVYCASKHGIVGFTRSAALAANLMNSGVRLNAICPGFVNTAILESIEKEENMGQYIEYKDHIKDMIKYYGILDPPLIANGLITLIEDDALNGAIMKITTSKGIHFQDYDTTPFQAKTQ

[10] = Passive permeability of the compound at pH 7.4 by PAMPA; assay type: ADME
[11] = system: LNCaP; assay: Induction of PGE2 production in human LNCAP cells at 41.9 nM to 100 uM after 16 hrs by HTRF assay relative to control; assay type: functional
[12] = system: A549; assay: Induction of PGE2 production in human A549 cells at 775 pM to 45.8 uM after 4 to 20 hrs by HTRF assay relative to control; assay type: functional
[13] = Kinetic solubility of the compound in PBS buffer at pH 7.4; assay type: physicochemical

Chain of L-lactate dehydrogenase B chain (P07195 whole entry): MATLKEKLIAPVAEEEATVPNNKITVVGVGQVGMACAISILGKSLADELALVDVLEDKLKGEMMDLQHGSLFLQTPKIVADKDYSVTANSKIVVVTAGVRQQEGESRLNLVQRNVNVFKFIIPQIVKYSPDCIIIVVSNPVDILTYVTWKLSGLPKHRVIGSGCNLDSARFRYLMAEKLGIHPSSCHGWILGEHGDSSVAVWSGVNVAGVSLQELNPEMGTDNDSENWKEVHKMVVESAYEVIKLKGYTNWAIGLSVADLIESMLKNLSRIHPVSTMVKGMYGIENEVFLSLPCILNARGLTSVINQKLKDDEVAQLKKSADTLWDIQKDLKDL

| IC50 [1] | IC50 [2] | IC50 [3] | t1/2 [5] | IC50 [7] | IC50 [8] | IC50 [9] | permeability [10] | Kinetic_solubility [13] | SMILES | AC50 [4] | AC50 [6] | Activity [11] | Activity [12] |
| --- | --- | --- | --- | --- | --- | --- | --- | --- | --- | --- | --- | --- | --- |
| Not Active | Not Active | 607 nM | 1.9 min | Not Active | Not Active | 22 nM | 1650 ×10⁻⁶ cm/s | 32 µM | Cc1cc(-c2nnc3n2CCCCC3)c(C)n1-c1ccc(Cl)c(Cl)c1 | 296 nM | 352 nM | 105% | 110% |
| Not Active | Not Active | 4820 nM | 2 min | Not Active | Not Active | 34 nM | 1100 ×10⁻⁶ cm/s | 37 µM | Cc1cc(-c2nnc3n2CCCCC3)c(C)n1-c1cccc(Cl)c1 | 590 nM | 558 nM | 68% | 114% |
| Not Active | Not Active | 1520 nM | 1.9 min | Not Active | Not Active | 48 nM | 1510 ×10⁻⁶ cm/s | 33 µM | Cc1cc(-c2nnc3n2CCCCC3)c(C)n1-c1cccc(C(F)(F)F)c1 | 2090 nM | 2220 nM | 44% | 145% |
| Not Active | Not Active | 2410 nM | 1.8 min | Not Active | Not Active | 34 nM | 1330 ×10⁻⁶ cm/s | 28 µM | Cc1ccc(-n2c(C)cc(-c3nnc4n3CCCCC4)c2C)cc1 | 166 nM | 703 nM | 71% | 107% |
